Experimental data published in a melting point compilation (Tetko et al.; mined from patent text by program, amines drawn as free bases though some values may be those of a salt).

melting point [°C]	Structure (SMILES)
58 to 60	CCCCCCCCCCCC1=NCCN1CCOCCO
180 to 181	CCOC(=O)CCCCCOc1ccc(C(=O)Nc2ccccc2S(=O)(=O)c2ccccc2-c2nnn[nH]2)cc1
130 to 131	COc1ccc(C(=C(C=O)c2nnnn2C)c2ccc(OC)cc2)cc1
85 to 90	CS(=O)(=O)c1ccc(-c2cnn(-c3cccc(Cl)c3)c(=O)c2C2CCCCC2)cc1
73 to 75.5	COC(=O)CCCCCOc1ccc(NC(=O)CCCCCO)cc1
205 to 206	Cc1nnc(-c2ccc3occ(-c4ccc(N(C)C)cc4)c3c2)o1
185 to 190	CCOc1ccc(C2SC(=N)NC2=N)cc1OCC (configuration not stated)
254 to 256	O=C1c2ccccc2-c2oc(=O)c3ccccc3c21
237 to 238	COc1cc(-n2nc(C(=O)N(C)C)c3c4ccc(Cl)cc4n(C)c3c2=O)ccn1
134 to 135	CCCOc1ccc(-c2ncccc2S(=O)(=O)Nc2ncc(C)nc2OC)cc1
98 to 100	CC(=O)Nc1cccc2c1SCC=C2
97 to 102	C=CCSC(Cc1ccc(Cl)cc1Cl)n1ccnc1 (configuration not stated)
94 to 96	CC(C)C(=O)N[C@@H](CSC(=O)C(C)C)C(=O)NCCSC(=O)C(C)C
123 to 124	Nc1cccc(C(=O)N2N=C(C(F)(F)F)CC2(O)c2cc(F)c(Cl)cc2F)c1 (configuration not stated)
170 to 171	CCN1CCN(c2ccc(NC(=O)Nc3ccc(Oc4cc(Cl)ncn4)cc3)cc2OC)CC1
135 to 138	COc1ccc(OC)c(COc2ccc(NC=O)c(C(N)=O)c2)c1
275 to 277	CC1C(=O)OC2=C(CSc3ccccc32)C1=O (configuration not stated)
171 to 174	Nc1nc(-c2ccc(F)c3ccccc23)co1
100 to 101	C[C@@H](n1ncn(-c2ccc(F)cc2)c1=O)[C@@]1(c2ccc(F)cc2F)CO1
328	COc1ccc(Cl)c2c1[nH]c1c(C(=O)O)cccc12
276 to 277	Cc1cc(C#N)cn2cc(-c3ccc(-c4ccc(C#N)cc4)o3)nc12
150 to 151	O=C(O)C(=O)CC(=O)c1cccn1Cc1ccccc1
84 to 86	CC(C)(C)OC(=O)CCC(N)(CCC(=O)OC(C)(C)C)CCC(=O)OC(C)(C)C
98	CCCCCSc1cc(C(=O)O)cc(N)c1Oc1ccccc1
108 to 110	CC(=O)Oc1cc(C(=O)Cl)cc(OC(C)=O)c1OC(C)=O

melting point [°C]	Structure (SMILES)
192 to 194	O=C(/C=C/c1c[nH]c2ccccc12)c1cccnc1
93 to 94	COCC1CN(c2ccc(C3CCC4(CC3)OCCO4)nc2)C(=O)O1 (racemic)
43 to 45	CNc1ccc(/C=C/c2c(F)cccc2Cl)cc1
132 to 134	COc1ccc(OC)c(C(O)c2cccc(N)c2)c1 (configuration not stated)
136 to 138	CCN(CC)c1ccc2c(-c3ccc(C#Cc4ccccc4)cc3)cc(=O)oc2c1
166 to 167	N#CCCNC(=O)c1cc(-c2cccc3nn(Cc4cccc(C(F)(F)F)c4)cc23)ccn1
170 to 171	CC1=CC(O)C(OC(=O)c2ccc(N)cc2)C(C)(C)CC1=O (configuration not stated)
143 to 148	Cn1ccc2cc(C(=N)Nc3cccc(NC(=O)C=Cc4ccccc4)c3)ccc21
248 to 249	COc1ccc(OCc2cccc(OCc3ccc4ccccc4n3)c2)c(C(=O)O)c1
229	NC(=O)c1ccc(F)c2c1CC(N)CO2 (configuration not stated)
187 to 189	CCOc1cc(Cc2cnc(N)nc2N)cc2c1OC(C)(C)C=C2CO
147 to 149	COc1ccc2c(c1)Sc1c(cc(OC)c(OC)c1Br)N2C(C)=O
155 to 158	Cn1nc(-c2ccc(F)cc2)c(-c2ccncc2)c1N
265 to 270	NC(=O)N1c2ccccc2C(Cl)=C(Cl)c2ccccc21
94 to 95	Cc1nc(-c2nc(-c3ccc(Cl)cc3)c(CCCCCO)o2)c[nH]1
61 to 62	COc1cccc(-c2cnc(-c3ccoc3)s2)c1
192 to 194	CC(=O)Nc1cnc2ccsc2c1
18	CCCCCC(=O)CCC(C)=O
217 to 218	Cc1cccc(C(N)=O)c1NS(=O)(=O)c1nc2scc(C)n2n1
121 to 123	CCOC(=O)C1=C(C)N=C(SCc2ccc(OC)cc2)N(C(=O)c2ccc([N+](=O)[O-])cc2)C1c1cccc([N+](=O)[O-])c1 (configuration not stated)
220 to 224	O=C(c1ccccc1)c1cc([N+](=O)[O-])ccc1-n1nc(CN2C(=O)c3ccccc3C2=O)cc1CN1C(=O)c2ccccc2C1=O
162 to 163	Nc1n[nH]c2ccc(Cl)cc12
290	Cc1c(-c2ccc([N+](=O)[O-])o2)nc(N)n2c(C)nnc12
182 to 184	Cn1cc(C(=O)c2ccnc(Cl)c2)cc1C(=O)c1ccc(Cl)cc1
193 to 194	CCN1CN2C(=N1)C(c1ccccc1Cl)=NCC1=C2S(=O)C(C(=O)NC)C1 (configuration not stated)

melting point [°C]	Structure (SMILES)
210	NC(=O)c1ccn2c1CSC2c1cccnc1 (single isomer, unassigned; (+))
51 to 53	CCc1cc([N+](=O)[O-])c(NC(CC)CC)c([N+](=O)[O-])c1C
212 to 215	O=C(NC(=O)c1c(Cl)cccc1Cl)Nc1noc2ccccc12
137 to 138	CC(C)(C)c1ccc(CO)cc1NC(=O)CC1c2ccccc2Oc2ccccc21
157 to 159	CCOc1ccc(N=c2ccn3ccccc3c2)cc1
121 to 140	CC1CON2C(=O)c3cc(Cl)ccc3OC2C1 (configuration not stated)
128 to 130	CC(=O)NCC1CN(c2ccc(-c3cccc(CCl)c3)c(F)c2)C(=O)O1 (configuration not stated)
148 to 149	C=CCOc1ccc(OCC)c2c1S(=O)(=O)N(Cc1ccccc1)C2=O
174 to 175	COc1ccc(-n2cnc3ccc(-c4nnc(SCc5cccc(C(F)(F)F)c5)o4)cc32)cc1
68	O=S(=O)(CC=C1CCCC1)c1ccccc1
282 to 284	N#Cc1cccc(C(=O)NCc2cccc3c2CN(C2CCC(=O)NC2=O)C3=O)c1 (configuration not stated)
195 to 197	CCOC(=O)c1ccc2cc(-c3cc4ccccc4o3)ccn2c1=O
126 to 128	Nc1ccc(OCc2ccc3ccccc3n2)cc1
193 to 195	Oc1ccc(NC2CCc3cc(O)ccc3C2)cc1 (configuration not stated)
123 to 125	Nc1ccc(CS(=O)(=O)NCCc2ccccc2)cc1
127	CCOC(=O)c1ccc(N)cc1-c1ccc(OC)c(OC)c1
128 to 129	CC1c2ccccc2CCON1C(N)=O (configuration not stated)
132 to 133	Oc1ccc(-c2noc(C3(COc4c(F)cccc4OC(F)(F)F)CC3)c2-c2ccccc2)cc1
170 to 172	CN(C)n1cc(C(=O)NCc2ccc(Cl)cc2)c(=O)c2ccccc21
224 to 228	CCCCC(=O)Nc1nc2ccc(Cl)cc2nc1N
184 to 185	CC(C)(C)c1cc(CCc2ccccc2NC(=O)NC2CCN(Cc3ccc(Cl)cc3)CC2)cc(C(C)(C)C)c1O
283 to 284	CC(C)(CCc1noc(=O)[nH]1)c1ccc(C(=O)Nc2cn3cc(-n4ccnc4)ccc3n2)cc1
247 to 248	O=C(Nc1ccccc1)N1CCc2cc(S(=O)(=O)N3CC(c4ccccc4)NC3=O)ccc21 (configuration not stated)
313	O=[N+]([O-])c1cnc2ccc(F)cc2c1O
165 to 167	CCCS(=O)(=O)Nc1nc(CN2CCN(C(c3ccccc3)c3ccccc3)CC2)cs1

melting point [°C]	Structure (SMILES)
178 to 180	N#CC=C1CCN(c2ccc(N3C[C@H](CNC(=O)CI)OC3=O)cc2F)CC1
222 to 224	c1ccc(COc2ccc(-c3ccc(OCc4ccccc4)cc3)cc2)cc1
104 to 106	COc1ccc2c(c1)OC[C@@H]1CCCN1C2=O
111 to 114	N#CC(c1ccccc1)(c1ccccc1)C1CN(C2CCCCC2)C1
56 to 59	Cc1cccc2cccc(O)c12
194 to 196	O=c1ccn(CCO)c(C(O)c2cccc(F)c2)c1OCc1ccccc1 (configuration not stated)
75 to 76	Cc1noc(=O)c2ccc(NC(=O)C(C)(O)CC3(c4cccc(C(F)(F)F)c4)CC3)cc12 (configuration not stated)
177 to 178	Cc1nc(-c2ccc(Cl)cc2)oc1COC(C)(C)C(N)=O
93 to 95	CC(=O)Oc1c(C(C)(C)C)cc(CCCO)cc1C(C)(C)C
> 300	O=c1[nH]c2cc(Cl)c(Cl)cc2n2ccnc12
125 to 126	NS(=O)(=O)C1(C2C(Cl)=CC=CN2C(F)(F)F)C=CC(Cl)=CC1Cl (configuration not stated)
188 to 193	O=C1Nc2ccccc2OCC1N1C(=O)c2ccccc2C1=O (configuration not stated)
234	Cc1[nH]c(=S)n(Nc2cccc(Cl)c2)c1C
154	Cn1c(=O)c(Cc2ccccc2F)cc2cnc(S(C)(=O)=O)nc21
58	NCCCCNC(=O)COc1ccc2ccccc2c1
59.3	N#Cc1ccc([C@H]2CC[C@H](C=C(F)F)CC2)cc1
213 to 216	OC(c1ccccc1)c1ccc(Nc2nccc(-c3cnc4ccccn34)n2)cc1 (configuration not stated)
152 to 154	COCCNc1ccc2ncnc(Nc3ccc(F)c(Cl)c3)c2c1
194 to 196	O=C(O)Cc1c(C(=O)c2ccccc2)[nH]c2ccccc12
118	COC(=O)c1ccc(OCC2CC(=O)N(c3ccc(OCC(C)C)cc3)C2)cc1 (configuration not stated)
206 to 208	CC(C(=O)N1c2ccccc2C(=O)N(C)c2cccnc21)N1CCN(C)CC1 (configuration not stated)
118 to 119	Fc1cccc(-c2sc(-c3ccccc3)cc2-c2ccccc2)c1
140 to 153	CC(C)(C)c1cc2c(c(C(C)(C)C)c1)OC(=O)C2c1ccc2c(c1)-c1ccccc1C2 (configuration not stated)

Structure (SMILES)	melting point [°C]
CN1CC=C(c2cccc3ccc(N(Cc4ccccc4)Cc4ccccc4)cc23)CC1	124 to 126
CN1CCN(c2n[nH]c3ccccc23)CC1	111 to 113
CCSC[C@@H]1[C@@H](c2ccc(Cl)c(Cl)c2)C[C@@H]2CC[C@H]1N2C	69 to 71
COC1CCC2C3CCC4=CC(=O)C(C)CC4(C)C3CCC12C (configuration not stated)	130 to 145
